For experiment [1], the system named is cellular pERK in PC-9 cells (EGFR Ex19Del). Description: Potency assay: pERK (AlphaLISA SureFire Ultra p-ERK1/2) in PC-9 cells. Format: cell-based. The note with it: Homo sapiens, PC-9, 1 h, PC-9 cells (EGFR Ex19Del), 1 hour incubation, AlphaLISA SureFire Ultra p-ERK1/2; read-out: SOS1 pERK IC50. On the technique in general: In Alpha technology, singlet oxygen from a donor bead excites a nearby acceptor bead.

Experiment [2] addresses SOS1 catalytic domain (residues 564-1049) (Homo sapiens (Human), UniProt Q07889). Kind of experiment: Potency assay: binding affinity to SOS1 by Surface Plasmon Resonance (SPR). The note with it: avi-tagged SOS1 catalytic domain immobilized on sensor chip; 1:1 equilibrium binding fit.
The target of experiment [3] is SOS1 nucleotide exchange of wild-type KRAS (Homo sapiens (Human), UniProt Q07889). Description: Mode of action assay: inhibition of SOS1 nucleotide exchange activity (TR-FRET). The note with it: SOS1 catalytic domain (564-1049), avi-tagged KRAS (1-169), EDA-GTP-DY-647P1; three replicates. It is filed as biochemical. For orientation: TR-FRET usually uses a lanthanide donor and a delayed reading to cut background.
Sequence of SOS1 nucleotide exchange of wild-type KRAS (Q07889 564-1049): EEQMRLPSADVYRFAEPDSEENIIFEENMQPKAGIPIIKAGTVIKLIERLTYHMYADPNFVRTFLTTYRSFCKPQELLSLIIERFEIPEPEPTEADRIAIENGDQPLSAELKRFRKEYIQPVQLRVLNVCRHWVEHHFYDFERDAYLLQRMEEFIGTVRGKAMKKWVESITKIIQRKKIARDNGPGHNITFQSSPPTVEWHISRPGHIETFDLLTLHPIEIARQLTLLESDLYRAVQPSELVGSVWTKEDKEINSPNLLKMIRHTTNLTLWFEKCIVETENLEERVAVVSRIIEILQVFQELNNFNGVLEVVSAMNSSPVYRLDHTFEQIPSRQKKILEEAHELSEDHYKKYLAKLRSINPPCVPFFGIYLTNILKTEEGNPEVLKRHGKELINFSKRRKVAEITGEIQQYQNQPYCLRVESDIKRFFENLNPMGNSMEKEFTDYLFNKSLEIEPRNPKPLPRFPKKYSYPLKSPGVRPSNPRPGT

Sequence of SOS1 catalytic domain (residues 564-1049) (Q07889 564-1049): as above

The term IC50 denotes the concentration that inhibits the measured activity by half. A word on the Kd: it is the constant that tells how readily two partners part at equilibrium. High values mean a looser complex, low ones a tighter complex. For the compound `C[C@@H](Nc1ncnc2c1cc(C1(F)CCS(=O)(=NC3CC3)CC1)c(=O)n2C)c1cccc(C(F)F)c1F` (single isomer, unassigned) [Example 57], the results for the IC50 in experiment [1] and in experiment [3] were 0.0426 µM and 0.00765 µM, respectively. The compound also returned a Kd in experiment [2] of 0.00919 µM.

Turning to `CC(=O)N1CC=C(c2cc3c(N[C@H](C)c4cccc5c4OCC5(F)F)ncnc3n(C)c2=O)CC1` [Example 1-18], the IC50 in experiment [1] is 0.067 µM; in experiment [3] it was 0.0128 µM. Moreover, the Kd in experiment [2] was 0.022 µM.

Consider `C[C@@H](Nc1ncnc2c1cc(C1=CCNC1)c(=O)n2C)c1cccc(C(F)F)c1F` [Example 1-1], for which the results for the IC50 in experiment [1] and in experiment [3] were 0.14 µM and 0.0415 µM, respectively. The compound further yielded a Kd in experiment [2] of 0.0591 µM.

Turning to `Cc1nc(N[C@H](C)c2cccc(C(F)F)c2F)c2cc(C3=CCS(=O)(=O)CC3)c(=O)n(C)c2n1` [Example 1-25], the figures for the 50% inhibitory concentration (IC50) in experiment [1] and in experiment [3] were 0.0837 µM and 0.0673 µM, respectively. This compound displayed a Kd in experiment [2] of 0.101 µM.

Source of the values: patent US11168102B1, “Bicyclic heteroaryl compounds and uses thereof” (Revolution Medicines, Inc., priority 2019, dated 2021).
